Like-named read-outs stand apart in the source and are kept apart here. Numbered stars: 1 amine (or outer) side, 2 acyl side, 3 side chain; on linkers, the order of the positions; unused ones are H or OH. Square brackets hold non-standard residues; d marks the D form. Peptide text beside a SMILES is read from it. * marks the point of attachment. d(hArg) = N=C(N)NCCCC[C@@H](N)C(=O)O; Hydrocinnamoyl = O=C(CCc1ccccc1)*; dCit = NC(=O)NCCC[C@@H](N)C(=O)O; Suc = O=C(CCC(=O)[*:2])[*:1]; Boc = CC(C)(C)OC(=O)*; Aib = CC(C)(N)C(=O)O
What was measured:
[1] = tested on: thrombus growth in abdominal vena cava; experiment: Rabbit deep vein thrombosis model; assay type: in vivo; settings: for Hct / PLT / RBC / WBC: mean±SD
Text: Haemost. […] Rabbits were anesthetized with I.M. injections of Ketamine, Xylazine, and Acepromazine cocktail.

[2] = Pharmacokinetics/Pharmacodynamics in rabbits after I.V. bolus; assay type: in vivo; settings: rabbit
factor Xa = factor Xa (Homo sapiens, UniProt P00742); experiment: Factor Xa amidolytic assay (chromogenic substrate S-2765); assay type: biochemical
prothrombinase complex = prothrombinase complex (Homo sapiens, UniProt P00742); experiment: Prothrombinase inhibition assay, plasma free system; assay type: biochemical; settings: 5 min preincubation, factor Xa 0.5 nM, factor Va 2 nM, pH 7.5; read-out: Inhibitory Activity (IC50) Prothrombinase
thrombin = biological target: T1, thrombin (Homo sapiens, UniProt P00734); experiment: Thrombin amidolytic assay (Chromozym TH); assay type: biochemical
T1 construct: The formation of thrombin is the result of the proteolytic cleavage of its precursor prothrombin

[3] = 5 min preincubation, room temperature, pH 7.5, read-out: Inhibitory Activity (IC50) Factor Xa
[4] = 5 min preincubation, room temperature, pH 7.5, read-out: Inhibitory Activity (IC50) Thrombin

Chain of prothrombinase complex (P00742 235-488 limits assumed): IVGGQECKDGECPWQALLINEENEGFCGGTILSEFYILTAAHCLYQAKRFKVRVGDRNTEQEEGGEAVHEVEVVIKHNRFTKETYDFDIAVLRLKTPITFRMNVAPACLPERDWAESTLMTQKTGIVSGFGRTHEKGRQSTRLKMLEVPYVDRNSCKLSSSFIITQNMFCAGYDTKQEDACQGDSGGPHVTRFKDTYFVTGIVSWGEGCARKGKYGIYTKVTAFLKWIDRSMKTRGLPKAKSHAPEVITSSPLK
Chain of prothrombinase complex (P00742 41-179 limits assumed): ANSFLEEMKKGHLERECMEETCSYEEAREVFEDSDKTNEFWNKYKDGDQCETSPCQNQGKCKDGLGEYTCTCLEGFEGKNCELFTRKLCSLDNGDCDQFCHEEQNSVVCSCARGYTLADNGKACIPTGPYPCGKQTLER
Chain of factor Xa (P00742 235-488 limits assumed): as the sequence (P00742 235-488 limits assumed) above
Chain of factor Xa (P00742 41-179 limits assumed): as the sequence (P00742 41-179 limits assumed) above

Q: With CC(C)(C)OC(=O)N[C@H](CCCN=C(N)N)C(=O)NCC(=O)N[C@H](C=O)CCCN=C(N)N [Boc--D--Arg--Gly--Arg--H, Boc-D-Arg-Gly-Arg-H] (Boc-[dR]-Gly-Arg-aldehyde) as the compound, how does the Hct ([1]; 200 + 1.98 μg/kg + μg/kg/min) read?
A: Its Hct is 36.9 ± 3.90%.

Q: What about the PLT ([1]; 200 + 1.98 μg/kg + μg/kg/min) of the same compound?
A: Its PLT is 393 ± 84 10^3 /μL.

Q: And the RBC ([1]; 200 + 1.98 μg/kg + μg/kg/min)?
A: The RBC was 5.69 ± 0.14 10^6 /μL.

Q: What about the WBC ([1]; 200 + 1.98 μg/kg + μg/kg/min) of the same compound?
A: The WBC was 4.45 ± 0.97 10^3 /μL.

Q: And the Hct ([1]; 600 + 5.94 μg/kg + μg/kg/min)?
A: Its Hct is 35.3 ± 3.01%.

Q: What about the PLT ([1]; 600 + 5.94 μg/kg + μg/kg/min) of the same compound?
A: Its PLT is 442 ± 81 10^3 /μL.

Q: And the RBC ([1]; 600 + 5.94 μg/kg + μg/kg/min)?
A: The RBC was 5.74 ± 0.48 10^6 /μL.

Q: And the WBC ([1]; 600 + 5.94 μg/kg + μg/kg/min)?
A: Its WBC is 3.87 ± 0.65 10^3 /μL.

Q: What about the Hct ([1]; 1000 + 9.90 μg/kg + μg/kg/min) of the same compound?
A: The Hct was 35.5 ± 1.01%.

Q: And the PLT ([1]; 1000 + 9.90 μg/kg + μg/kg/min)?
A: The PLT was 375 ± 73 10^3 /μL.

Q: And the RBC ([1]; 1000 + 9.90 μg/kg + μg/kg/min)?
A: Its RBC is 5.71 ± 0.28 10^6 /μL.

Q: And the WBC ([1]; 1000 + 9.90 μg/kg + μg/kg/min)?
A: The WBC was 5.09 ± 1.61 10^3 /μL.

Q: What about the Hct ([1]; 1500 + 14.85 μg/kg + μg/kg/min) of the same compound?
A: Its Hct is 36.0 ± 3.31%.

Q: What about the PLT ([1]; 1500 + 14.85 μg/kg + μg/kg/min) of the same compound?
A: Its PLT is 433 ± 22 10^3 /μL.

Q: What about the RBC ([1]; 1500 + 14.85 μg/kg + μg/kg/min) of the same compound?
A: Its RBC is 5.80 ± 0.50 10^6 /μL.

Q: And the WBC ([1]; 1500 + 14.85 μg/kg + μg/kg/min)?
A: The WBC was 4.82 ± 1.01 10^3 /μL.

Q: What about the “effects on hematological parameters as compared to saline controls” value ([1]; bolus + infusion) of the same compound?
A: The value was “no significant effects”.

Q: What about the “changes in hematological parameters as compared to saline controls” value ([2]; 2.0 mg/kg I.V. bolus) of the same compound?
A: Its value is “no significant changes”.

Q: And the “mean clearance value (CL)” value ([2]; I.V.)?
A: The value was 1.16 mL/min/kg.

Q: What about the volume of distribution ([2]; I.V.) of the same compound?
A: Its volume of distribution is 0.1183 L/kg.

Q: What about the mean plasma half-life ([2]; I.V., n=3) of the same compound?
A: Its mean plasma half-life is 1.18 h.

Q: For CC(C)(C)OC(=O)N[C@H](CCCCN)C(=O)NCC(=O)N[C@H](C=O)CCCNC(=N)N [Boc--D--Lys--Gly--Arg--H, Boc-D-Lys-Gly-Arg-H] (Boc-[dK]-Gly-Arg-aldehyde), which IC50 (factor Xa; [3]) is on record?
A: Its IC50 is 10000 nM.

Q: For N=C(N)NCCC[C@@H](C=O)NC(=O)CNC(=O)[C@@H](CCCNC(=N)N)NC(=O)C(=O)O [HOOCCO--D--Arg--Gly--Arg--H, Oxaloyl-D-Arg-Gly-Arg-H], which IC50 (prothrombinase complex) is on record?
A: The IC50 was 630 nM.

Q: For N=C(N)NCCC[C@@H](C=O)NC(=O)CNC(=O)[C@@H](CCCNC(=N)N)NS(=O)(=O)Cc1ccccc1 [PhCH2 SO2 --D--Arg--Gly--Arg--H, Benzylsulfonyl-D-Arg-Gly-Arg-H], which IC50 (thrombin) is on record?
A: Its IC50 is 33000 nM.

Q: Which IC50 (factor Xa; [3]) does the source give for CC(C)(C)OC(=O)N[C@H](CCCCNC(=N)N)C(=O)NCC(=O)N[C@H](C=O)CCCNC(=N)N [Boc--D--Har--Gly--Arg--H, Boc-D-Har-Gly-Arg-H] (Boc-[d(hArg)]-Gly-Arg-aldehyde) here?
A: Its IC50 is 100 nM.

Q: What about the IC50 (prothrombinase complex) of the same compound?
A: Its IC50 is 173 nM.

Q: What about the IC50 (thrombin; [4]) of the same compound?
A: The IC50 was 405000 nM.

Q: For CC(C)(C)OC(=O)N[C@H](CCCNC(N)=O)C(=O)NCC(=O)N[C@H](C=O)CCCN=C(N)N [Boc--D--Cit--Gly--Arg--H, Boc-D-Cit-Gly-Arg-H] (Boc-[dCit]-Gly-Arg-aldehyde), which IC50 (factor Xa) is on record?
A: Its IC50 is 5000 nM.

Q: And the IC50 (prothrombinase complex)?
A: The IC50 was 44000 nM.

Q: With CCOC(=O)N[C@H](CCCN=C(N)N)C(=O)NCC(=O)N[C@H](C=O)CCCN=C(N)N [EtOCO--D--Arg--Gly--Arg--H, EtO2 C-D-Arg-Gly-Arg-H] as the compound, how does the IC50 (factor Xa) read?
A: Its IC50 is 49 nM.

Q: With C[C@@H](NC(=O)[C@@H](CCCNC(=N)N)NC(=O)OC(C)(C)C)C(=O)N[C@H](C=O)CCCNC(=N)N [Boc--D--Arg--D--Ala--Arg--H, Boc-D-Arg-D-Ala-Arg-H] (Boc-[dR]-[dA]-Arg-aldehyde) as the compound, how does the IC50 (factor Xa; [3]) read?
A: The IC50 was 230 nM.

Q: What does the source list for NC(N)=NCCC[C@@H](C=O)NC(=O)CNC(=O)[C@H](N)CCCN=C(N)N [H--D--Arg--Gly--Arg--H, D-Arg-Gly-Arg-H] (H-[dR]-Gly-Arg-aldehyde)?
A: IC50 (factor Xa): 64 nM; IC50 (prothrombinase complex): 830 nM; IC50 (thrombin): 41000 nM

Q: With CC(C)(C)OC(=O)N[C@H](CCCNC(=N)N)C(=O)NCCC(=O)N[C@H](C=O)CCCNC(=N)N [Boc--D--Arg--β-Ala--Arg--H, Boc-D-Arg-β-Ala-Arg-H] as the compound, how does the IC50 (thrombin; [4]) read?
A: The IC50 was over 500000 nM.

Q: With N=C(N)NCCC[C@@H](C=O)NC(=O)CNC(=O)[C@@H](CCCNC(=N)N)NC(=O)CCc1ccccc1 [PhCH2 CH2 CO--D--Arg--Gly--Arg--H, 3-Phenylpropanoyl-D-Arg-Gly-Arg-H] (Hydrocinnamoyl-[dR]-Gly-Arg-aldehyde) as the compound, how does the IC50 (factor Xa; [3]) read?
A: The IC50 was 200 nM.

Q: What about the IC50 (prothrombinase complex) of the same compound?
A: Its IC50 is 2000 nM.

Q: And the IC50 (thrombin; [4])?
A: The IC50 was 75000 nM.

Q: For C[C@H](NC(=O)[C@@H](CCCNC(=N)N)NC(=O)OC(C)(C)C)C(=O)N[C@H](C=O)CCCNC(=N)N [Boc--D--Arg--Ala--Arg--H, Boc-D-Arg-Ala-Arg-H] (Boc-[dR]-Ala-Arg-aldehyde), which IC50 (factor Xa; [3]) is on record?
A: The IC50 was 167 nM.

Q: With N=C(N)NCCC[C@@H](C=O)NC(=O)CNC(=O)[C@@H](CCCNC(=N)N)NC(=O)COc1ccc2ccccc2c1 [2-NaphthoxyAc--D--Arg--Gly--Arg--H, 2-Napthoxyacetyl-D-Arg-Gly-Arg-H] as the compound, how does the IC50 (thrombin) read?
A: Its IC50 is over 100000 nM.

Q: With CC(C)(C)OC(=O)N[C@H](CCCNC(=N)N)C(=O)NCC(=O)N[C@H](C=O)CCCNC(=N)N [Boc--D--Arg--Gly--Arg--H, Boc-D-Arg-Gly-Arg-H] (Boc-[dR]-Gly-Arg-aldehyde) as the compound, how does the “% Inhibition of Thrombosis” value ([1]; 200 + 1.98 μg/kg + μg/kg/min) read?
A: Its value is 8.4%.

Q: What about the “% Inhibition of Thrombosis” value ([1]; 600 + 5.94 μg/kg + μg/kg/min) of the same compound?
A: The value was -6.6%.

Q: And the “% Inhibition of Thrombosis” value ([1]; 1000 + 9.90 μg/kg + μg/kg/min)?
A: The value was 58.6%.

Q: And the “% Inhibition of Thrombosis” value ([1]; 1500 + 14.85 μg/kg + μg/kg/min)?
A: The value was 31.4%.

Q: What about the “antithrombotic efficacy in the rabbit venous thrombosis model” value ([1]; bolus + infusion, all doses evaluated) of the same compound?
A: The value was “demonstrated antithrombotic efficacy at the higher doses evaluated”.

Q: And the IC50 (factor Xa; [3])?
A: The IC50 was 50 nM.

Q: And the anticoagulative effect ([2]; 2.0 mg/kg I.V. bolus)?
A: The anticoagulative effect was “plasma concentration-dependent anticoagulative effect”.

Q: With N=C(N)NCCC[C@@H](C=O)NC(=O)CNC(=O)[C@@H](CCCNC(=N)N)NC(=O)CC(=O)O [HOOCCH2 CO--D--Arg--Gly--Arg--H, Malonoyl-D-Arg-Gly-Arg-H] as the compound, how does the IC50 (factor Xa) read?
A: Its IC50 is 98 nM.

Q: Which IC50 (factor Xa; [3]) does the source give for N=C(N)NCCC[C@@H](C=O)NC(=O)CNC(=O)[C@@H](CCCNC(=N)N)NC(=O)CCC(=O)O [HOOC(CH2)2 CO--D--Arg--Gly--Arg--H, Succinoyl-D-Arg-Gly-Arg-H] (Suc-[dR]-Gly-Arg-aldehyde) here?
A: The IC50 was 224 nM.

Q: For CN(C)C(=NCCCC[C@@H](NC(=O)OC(C)(C)C)C(=O)NCC(=O)N[C@H](C=O)CCCNC(=N)N)N(C)C [Boc--D--Har((CH3)4)--Gly--Arg--H, Boc-D-Har((CH3)4)-Gly-Arg-H], which IC50 (thrombin; [4]) is on record?
A: Its IC50 is over 100000 nM.

Q: Which IC50 (factor Xa; [3]) does the source give for CC(C)(C)OC(=O)N[C@H](CCCNC(=N)N)C(=O)NC(C)(C)C(=O)N[C@H](C=O)CCCNC(=N)N [Boc--D--Arg--Aib--Arg--H, Boc-D-Arg-Aib-Arg-H] (Boc-[dR]-[Aib]-Arg-aldehyde) here?
A: The IC50 was 552 nM.

— patent US5721214A, “Inhibitors of factor Xa” (COR Therapeutics, Inc., priority 1995, dated 1998)
